According to ChEMBL document CHEMBL4002566, “S-substituted 3,5-dinitrophenyl 1,3,4-oxadiazole-2-thiols and tetrazole-5-thiols as highly efficient antitubercular agents” (Eur J Med Chem, 2017):
In brackets after ≈: the same amount, converted by molar mass.

Assays:
Assay type in all cases: functional
[1] = test system: Mycobacterium tuberculosis; test: Antimycobacterial activity against Mycobacterium tuberculosis after 14 days; details: 336 h
[2] = test system: Mycobacterium tuberculosis; test: Antimycobacterial activity against Mycobacterium tuberculosis H37Rv expressing GFP after 7 days; details: 168 h
[3] = test system: Mycobacterium tuberculosis; test: Antimycobacterial activity against Mycobacterium tuberculosis by broth microdilution method
[4] = test system: Mycobacterium tuberculosis; test: Antimycobacterial activity against Mycobacterium tuberculosis H37Rv after 7 days by resazurin reduction microplate assay; details: 168 h

C[C@]1(COc2ccc(N3CCC(Oc4ccc(OC(F)(F)F)cc4)CC3)cc2)Cn2cc([N+](=O)[O-])nc2O1 [DELAMANID]
MIC [1]: 0.023 µM (≈ 0.0123 µg/mL)

COc1ccc(OCCNC(=O)c2cc([N+](=O)[O-])cc([N+](=O)[O-])c2)cc1
MIC [2]: 0.2 µM (≈ 0.0723 µg/mL)

CCC1Cn2cc([N+](=O)[O-])nc2O1 (centres undefined)
MIC [3]: 0.2 µM (≈ 0.0366 µg/mL)

Cc1nc2cc(Br)cc([N+](=O)[O-])c2nc1-c1ccccc1
MIC [4]: 3.1 µM (≈ 1.07 µg/mL)
